Experimental data from patent publication US20210386754A1, “COMPOSITIONS AND METHODS FOR TREATING ATHEROSCLEROTIC VASCULAR DISEASE” (AUGUSTA UNIVERSITY RESEARCH INSTITUTE, INC., priority 2020, published 2021).
“Also recorded” adds a separate entry of the source.

Experiments:
[1] = test system: lipopolysaccharide (LPS)-treated ApoE-/- mice; conditions: Zhao et al. 2012; cited from earlier work
[2] = test system: pre-hypertensive patients; conditions: amiloride monotherapy; independent of blood pressure lowering effect; cited from earlier work
THP-1 macrophages = assay: Foam cell formation / nLDL macropinocytosis, Nile Red FACS; assay type: cell-based, human; conditions: for macropinocytosis of nLDL (Nile Red fluorescence): M-CSF 100 ng/mL, PDGF 200 ng/mL
Procedure: Flow cytometry experiments were performed using the BD Accuri C6 flow cytometer using a standard protocol.
Foam cell formation: THP-1 macrophages or bone marrow-derived macrophages were treated with vehicle, known macropinocytosis stimulators (PMA 1 μM, M-CSF 100 ng/mL or PDGF 200 ng/mL)+/− macropinocytosis inhibitors (imipramine 10 μM or EIPA 25 μM; 1 hour pre-incubation) in the presence of nLDL, ox-LDL, or ac-LDL ([…]) for 24 hours. Cells were fixed in 2% PFA and stained with Nile Red (50 ng/mL) for 7 min. Fluorescence intensity was measured using the FL3 channel for Nile Red (Ex: 488 nm, Em: 670 nm).

[3] = test system: macropinocytosis in macrophages; assay: Unbiased screen of FDA-approved drug library for inhibition of macrophage macropinocytosis; assay type: cell-based; conditions: screen of an FDA-approved drug library
[4] = test system: hypercholesterolemic mice (PCSK9-AAV-mediated LDLR knockdown); assay: Atherosclerosis model: PCSK9-AAV, partial LCA ligation, Western diet; assay type: in vivo, mouse
Source text: Mice were given a single injection of AAV-PCSK9 (1×1011 VG) and fed a Western diet (Envigo, TD.88137, Indianapolis, Ind.). One week after AAV-PCSK9 injection, mice underwent partial carotid ligation surgery as previously described (67) and Western diet was continued for another 3 weeks. In separate experiments, mice were given a single injection of AAV-PCSK9 (1×1011 VG) and fed a Western diet for 16 weeks. Mice were anesthetized (isoflurane inhalation, 3%) and exsanguinated. Blood was collected from left ventricle using a heparinized syringe fitted with a 21 G needle. Aortic arch and carotid arteries were collected, and gross macroscopic images were acquired. For molecular histology studies, carotids and aortic arch were fixed in 4% paraformaldehyde (PFA), embedded in OCT compound and stored at −80° C. until use.
ORO staining: Atherosclerosis development in carotid arteries and whole aorta were studied initially by gross imaging followed by Oil Red O (ORO) staining and plaque quantification. Briefly, the entire aorta was isolated, cleaned of peri-adventitial fat, fixed and imaged on the surface of black silicone-coated dissection dishes. Left carotid arteries were embedded in OCT and 10 μm thick cross-sections were prepared. The arteries were divided into 3 regions based on their distance from the aortic arch: proximal (0-400 μm), middle (2,000-2,400 μm) and distal (4,000-4,400 μm). Frozen sections and whole aortas were then stained with ORO solution (2%) and images were taken using light microscope equipped with a camera under 20× and 1.6× objective lens. The total area, lumen area and ORO positive area were measured for six sections/anatomical position per mouse using Image J software. The ratio of ORO positive area to arterial area is represented as plaque area. Plasma total cholesterol concentrations were determined by the Amplex™ Red Cholesterol Assay Kit (ThermoFisher, Rockford, Ill.). Plasma lipid profiles were obtained by column fractionation and measurements of fraction cholesterol content.
Hematoxylin and Eosin (H&E) or Masson's trichrome staining: Frozen sections were also used for Hematoxylin and Eosin (H&E) or Masson's trichrome staining following standard procedures to evaluate the lesion size and collagen content, respectively.
Orcein and Martius Scarlet Blue (OMSB) staining: OMSB was used for qualitative and quantitative analysis of atherosclerotic plaques as previously described. Briefly, left carotid arteries were dissected out, fixed in 4% buffered paraformaldehyde (pH=7.4) for at least 48 hr, and then routinely processed and embedded in paraffin (tissue processor TP1020; Leica, Wetzlar, Germany). Cross sections were cut every 5 m along the artery (starting from the proximal end) and mounted serially on silanized slides. Sections were stained and mounted automatically using Leica ST5010 Autostainer XL combined with Leica CV5030 Glass Coverslip. Deparaffinized sections through xylene and ethanol, and rehydrate to water. Postfix sections in Bouin's fixative at 56° C. for 1 hour, then rinse for 10 min in tap water to remove traces of picric acid. Stain with orcein for 20 min at 56° C. Differentiate in acidic alcohol for 2 min and then transfer to 96% ethanol for 30 s. Stain with martius yellow for 3 min and rinse in distilled water (2×2 min). Stain with crystal scarlet for 10 min. Differentiate with phosphotungstic acid 2 min and transfer to distilled water (for about 10 s). Stain with methyl blue 5 min. Rinse in acetic acid water 3 min, dehydrate through ethanol and carbol-xylene, clear in xylene, and mount in DPX or other resin. Staining of collagen with picrosirius red. The sections were examined and digital images of stained arteries were recorded using Olympus dotSlide system (Olympus, Tokyo, Japan). Segmentation algorithm allowed to distinguish vessel wall area, lumen area, plaque area, and area of the plaque occupied by collagen. The results were presented as areas of identified components in μm2. […]

[5] = cited from earlier work
[6] = imipramine-treated vs control mice

N=C(N)NC(=O)c1nc(Cl)c(N)nc1N [amiloride]
lesion development [1]: reduces
pulse wave velocity (PWV) [2]: improves

PDGF
macropinocytosis of nLDL (Nile Red fluorescence) (THP-1 macrophages): stimulated

catalase
M-CSF- and PDGF-induced nLDL internalization (THP-1 macrophages; non-pegylated SOD 100 U/mL and/or catalase 250 U/mL, 1 hr pretreatment, 50 μg/mL nLDL, 24 hours): did not inhibit

CN(C)CCCN1c2ccccc2CCc2ccccc21 [imipramine]
IC50 [3]: 131 nM
M-CSF- and PDGF-induced intracellular lipid accumulation following nLDL treatment (Nile Red) (THP-1 macrophages; imipramine 1 hour preincubation, 100 ng/mL M-CSF or 200 ng/mL PDGF, 50 μg/mL nLDL, 24 hours): inhibited
atherosclerotic lesion formation (OMSB staining) ([4]; imipramine 9 mg/mL, pump rate 0.11 μl/hour, sc, LDLR-knockdown mice, vs vehicle): significantly attenuates; also recorded: attenuated
collagen area (collagen %) ([4]; imipramine sc vs vehicle): inhibited
relative internal vessel area (IVA %) ([4]; imipramine sc vs vehicle): inhibited
blood pressure [4, 6]: no significant differences
body weight [4, 6]: no significant differences
fat mass [4, 6]: no significant differences
whole body fluid content [4, 6]: no significant differences
oral bio-availability [5]: 95%

B1: M-CSF: macrophage colony-stimulating factor, physiological stimulator of macropinocytosis (protein, UniProt P09603 33-554, looked up)
Macrophage colony-stimulating …: EEVSEYCSHMIGSGHLQSLQRLIDSQMETSCQITFEFVDQEQLKDPVCYLKKAFLLVQDIMEDTMRFRDNTPNAIAIVQLQELSLRLKSCFTKDYEEHDKACVRTFYETPLQLLEKVKNVFNETKNLLDKDWNIFSKNCNNSFAECSSQDVVTKPDCNCLYPKAIPSSDPASVSPHQPLAPSMAPVAGLTWEDSEGTEGSSLLPGEQPLHTVDPGSAKQRPPRSTCQSFEPPETPVVKDSTIGGSPQPRPSVGAFNPGMEDILDSAMGTNWVPEEASGEASEIPVPQGTELSPSRPGGGSMQTEPARPSNFLSASSPLPASAKGQQPADVTGTALPRVGPVRPTGQDWNHTPQKTDHPSALLRDPPEPGSPRISSLRPQGLSNPSTLSAQPQLSRSHSSGSVLPLGELEGRRSTRDRRSPAEPEGGPASEGAARPLPRFNSVPLTDTGHERQSEGSFSPQLQESVFHLLVPSVILVLLAVGGLLFYRWRRRSHQEPQRADSPLEQPEGSPLTQDDRQVELPV
macropinocytosis of nLDL (Nile Red fluorescence) (THP-1 macrophages): stimulated
